# Assay results as given in patent US20210260015A1, “COMPOSITION FOR INHIBITING FAT ACCUMULATION” (National University Corporation Tokyo University of …, priority 2018, published 2021).
# Legend:
# Format in all cases: in vivo, C57BL/6J male mice
# [1] = Body weight changes of mice fed test diets for 5 weeks; settings: conclusion from diet groups, C8 vs C10 and C12
# Procedure: (§1) Seven (7)-week-old C57BL/6J male mice (Japan SLC, Inc.) were acclimated with CLEA Rodent Diet CE-2 (manufactured by CLEA Japan, Inc.) for 1 week, and divided into 5 groups (n=9 or 10). Any of feeds having the compositions indicated in Tables 1 and 2, i.e., four types of test diets and a normal diet, was given to the respective groups for 5 weeks. Specifically, as the test diets, MCT diets were prepared by blending MCTs and LCT in a low-carbohydrate high-fat diet feed made based on an AIN-93G standard composition feed, and an LCT diet was prepared by blending LCT (manufactured by Wako Pure Chemical Industries) alone, without MCT, in a low-carbohydrate high-fat diet feed made based on an AIN-93G standard composition feed. […]
# (§2) The ingestion amounts of the test diets and the body weight changes during the test period (5 weeks) were measured, and the weights of the various organs including adipose tissues and the plasma levels of ketone bodies were measured at the end of the test period. […] In addition, plasma was collected from the collected blood, and ketone bodies were quantified according to an enzymatic method.
# [2] = Weights of adipose tissues 5 weeks after the beginning of ingestion; settings: conclusion from diet groups, C8 vs C10 or C12
# Procedure: as §1, §2
# [3] = Plasma levels of ketone bodies 5 weeks after the beginning of ingestion (enzymatic method); settings: conclusion from diet groups
# Procedure: as §1, §2
smiles,measurement,setting,value
"CCCCCCCC(=O)OCC(COC(=O)CCCCCCC)OC(=O)CCCCCCC [caprylic acid triglyceride (C8), caprylic acid triglyceride]",effect for suppressing body weight gain depending on the number of carbon atoms of the constituent fatty acid of MCT,[1],has a higher effect for suppressing body weight gain than those of capric acid triglyceride (C10) and lauric acid triglyceride (C12)
same,effect for suppressing neutral fat accumulation depending on the number of carbon atoms of the constituent fatty acid of MCT,[2],has a higher effect for suppressing neutral fat accumulation than that of capric acid triglyceride (C10) or lauric acid triglyceride (C12)
same,"ketone body production, C8 vs C10 or C12 triglyceride",[3],produces ketone bodies more than those produced by capric acid triglyceride (C10) or lauric acid triglyceride (C12)
